Data as given in patent US10213451B2, “Methods and compounds for modulating the secretion or expression of adhesion proteins or angiopoietins of cells” (PACIFIC ARROW LIMITED, priority 2004, dated 2019).
≈ marks a conversion by molar mass, not a printed value. Like-named read-outs stand apart in the source and are kept apart here.

Experiments:
[1] = test system: swelling of rats' feet induced by Carrageenin; test: Carrageenin-induced swollen feet model; format: in vivo, SD rats; conditions: positive control 10.0 mg/kg fed once;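 further: percent increase in foot volume over pre-inflammation volume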
Experimental: SD rats, male, weighing 163±18 g were used in the experiment. The tested animals are allowed to acclimate for a week. The rats drink water freely. The rats were randomly divided into 5 groups: control, positive control and 3 test groups, and each group had 8 rats. The dose for 3 groups of rats are 10, 20 and 40 mg/kg. Indometacin for the positive control is 10 mg/kg and fed once after modeling. The dose of CMC-Na for the control group is the same as each test group and fed into the stomach once a day before modeling for 5 days. The tested drug was fed into the stomach 10 minutes before the animal modeling (1 mL/100 g). The volumes of right foot of each rat were measured 0.5, 1, 2 and 4 hours before and after modeling. The volumes of the right hind feet were measured at a different time, 10 minutes after inflammation induced by subcutaneous injection (with syringe needle 7) of 0.05 mL of the 1% of Carrageenin/normal saline mixture into the feet. The Rate of swelling of the feet was calculated, compared with the controls and subject to a student t-test. Rate of swelling (E) (%)=Ltn−Lt0/Lt0×100% • Ltn: volume of foot after the inflammation • Lt0: volume of foot before the inflammation

[2] = test system: ES2(ovarian) cells; test: MTT assay ES2; format: cell-based, human; conditions: for viable cells by MTT units vs DMSO control: 24 hours
Experimental: (§1) MTT Assay. The procedure for MTT assay followed the method described by Carmichael et al. (1987) with modifications. The cells were seeded into a 96-well plate at concentration of 10,000/well for HTB-9, HeLa, H460, HCT116, T98G and OVCAR-3), 15,000/well for DU145, MCF-7, HepG2 and U2OS), and 40,000/well for K562 for 24 hours before drug-treatment. The cells were then exposed to the drugs for 48 hours (72 hours for HepG2 and U2OS, and 96 hours for MCF-7). After the drug-treatment, MTT (0.5 mg/mL) was added to cultures and incubated for an hour. The formazan (product of the reduction of tetrazolium by viable cells) formed and was dissolved with DMSO and the O.D. at 490 nm, and was measured by an ELISA reader. The MTT level of the cells before drug-treatment was also measured (T0). The % cell-growth (% G) is calculated as: % G=(TD−T0/TC−T0)×100(1), where TC or TD represents O.D. readings of control or drug-treated cells. When T0>TD, then the cytotoxicity (LC) expressed as % of the control is calculated as: % LC=(TD−T0/T0)×100(2).
Methods: ES2 cells were exposed to (i) Xanifolia-Y with concentrations of 40, 20, 10, 5, 2.5, and 1.25 ug/ml; or (ii) Paclitaxel with concentrations of […]; or (iii) Combined Xanifolia-Y and Paclitaxel with concentrations of each drug in same order (for example, 40 ug/ml Y plus 10 ng/ml T; 20 ug/ml Y plus 5 ng/ml T, etc. please see FIG. 28). Cells growth under these conditions was determined by the MTT assay.
(§2) Drug-treatment: cells cultures were replaced with fresh RPMI medium containing Xanifolia-Y (10 ug/ml final concentration) or DMSO (as control) at 0 hour. At 2, and 18 hour, aliquot of culture medium was taken out for Fibronectin determination (Western blot method). Cell viability at 18 hours was determined by MTT assay. Cultures were replaced with RPMI medium with MTT and incubated for an hour. The formation of formazan was dissolved in DMSO and OD at 570 nm was measured.

[3] = test system: Fibronectin secretion from ES2 cells; test: Fibronectin secretion (Western blot), ES2 cells; format: cell-based, human; conditions: for Fibronectin secreted into medium, % of DMSO control: 24 hours; for inhibition at 10 µg/mL: Homo sapiens, ES-2, ES2 cells
Experimental: Inhibition of Fibronectin secretion is physiological and the determination of its quantity is based on the following criteria: • 1. Fibronectin is secreted from viable cells. Only cell with over 85% viable cells after drug-treatment are employed in these experiments. The viable cells were determined by MTT assay. • 2. For comparison, the immuno-band intensity from each samples are normalized with cell mass. The cell mass was determined by the MTT assay and is assigned as a MTT unit for each cell sample.
Cells: ES2 cells were grew in T-25 flask with RPMI 1640 medium over night before drug-treatment. Drug-treatment: cells cultures were replaced with fresh RPMI medium with Xanifolia-Y (10 ug/ml final concentration) or DMSO (as control) at 0 hour. At 1, 2, 4, 8 and 24 hour, aliquot of culture medium was taken out for Fibronectin determination. Fibronectin was determined by Western blot with monoclonal antibody (SIGMA) specific to human Fibronectin only.
Drug-treatment: cells cultures were replaced with fresh RPMI medium containing Xanifolia-Y (10 ug/ml final concentration) or DMSO (as control) at 0 hour. At 4 hours (A) or 8 hour (B), culture medium was replaced with fresh culture medium without drug. At 2, 4, 8 and 24 hour, aliquot of culture medium was taken out for Fibronectin determination. Fibronectin (FN) was determined by Western blot with monoclonal antibody (SIGMA) specific only to human Fibronectin.
as §2
Cells and Drug-treatment: same as previous experiments. After 7 or 24 hours, aliquot of culture medium was taken out for Fibronectin determination (Western blot method). Cell viability at 24 hours was determined by MTT assay.
Cells: ES2 cells were grew in RPMI 1640 medium over night before drug-treatment. Drug-treatment: cells cultures were replaced with fresh RPMI medium containing DMSO (as control) [D]; Xanifolia-Y (10 ug/ml) [Y]; or Paclitaxel 10 or 50 ng/ml [T10, ro T50]. After 24 hours, aliquot of culture medium was taken out for Fibronectin determination (Western blot method). Cell viability at 24 hours was determined by MTT assay.
The amount of Fibronectin secreted by cells into medium was determined by Western blot assay. The amount of Fibronectin secreted per cells basis was determined by dividing the Western-band intensity with the MTT unit.
Western Blot: Spent culture medium (0.6 ml) was mixed with SDS sample buffer (0.2 ml), boiled for 3 minutes before loading to SDS gel. Samples (60 ul/lane) were applied to a 6% SDS gel and electrophoresis was conducted with 100 volts for 2 hours. Protein was transferred to a nitrocellulose paper electrophoretically (30 min at 100 volts). The Western blot was incubated with the first antibody (mouse anti-FN, specific to human FN, SIGMA F0916) and second antibody (Anti-mouse IgG AP conjugated, Promega S3721). The immunobands were developed with BCIP/NBT color development system (Promega S3771).

[4] = test system: Fibronectin secretion from brain glioblastoma T98G cells; test: Fibronectin secretion (Western blot), T98G cells; format: cell-based, human; conditions: for inhibition at 10 µg/mL: Homo sapiens, 10 ug/ml
[5] = test system: Fibronectin secretion from skin SK-Mel-5 cells; test: Fibronectin secretion (Western blot), SK-MEL-5 cells; format: cell-based, human
[6] = test system: Fibronectin secretion from bladder carcinoma cells (HTB-9); test: Fibronectin secretion (Western blot), HTB-9 cells; format: cell-based, human; conditions: 10 ug/ml; for inhibition at 10 µg/mL: Homo sapiens
[7] = test system: Fibronectin secretion from liver HepG2 cells; test: Fibronectin secretion (Western blot), HepG2 cells; format: cell-based, human; conditions: 10 ug/ml; for % inhibition of Fibronectin secretion: HepG2 cells; for inhibition at 10 µg/mL: Homo sapiens, HepG2, HepG2 cells
[8] = test system: Fibronectin secretion from lung carcinoma cells (H460); test: Fibronectin secretion (Western blot), H460 cells; format: cell-based, human; conditions: Homo sapiens, NCI-H460, H460 cells, 10 ug/ml
[9] = test system: tumor growth; test: MTT anticancer activity of Y, X and hydrolysis products (FIG. 4C); format: cell-based
Experimental: as §1
(A) Alkaline Hydrolysis of Xanifolia-Y: 20 mg of Xanifolia-Y was dissolved in 0.5 mL of 1M NaOH. The solution was incubated in an 80° C. water bath for 4 hours. It was cooled to room temperature before being neutralized with 0.5 mL 1 N HCl (adjusted pH to about 3). The mixture was extracted with 2 mL 1-butanol 3 times. The butanol fractions were collected and lyophilized. The hydrolyzed saponin was further purified with HPLC in a C-18 column eluted with 25% acetonitrile.
(B) Acid Hydrolysis of Xanifolia-Y: 15 mg Xanifolia-Y was dissolved in 1 mL of Methanol. 1 mL of 2N HCl was then added. The mixture was refluxed in an 80° C. water bath for 5 hours. The solution was then neutralized by adding 2 mL of 1N NaOH (to a final pH 3-4). The aglycone was then extracted with ethylacetate 3 mL×3. The extracts were collected and pooled. Further isolation of aglycone (sugar-removed Xanifolia-Y) was achieved by HPLC with isocratic elution of 80% acetonitrile.

COc1ccc2c(c1)c(CC(=O)O)c(C)n2C(=O)c1ccc(Cl)cc1 [Indometacin, reference compound]
Swelling rate after administration (%) ([1]; 0.5 hour): 11.8%
Swelling rate after administration (%) ([1]; 1 hour): 14.7%
Swelling rate after administration (%) ([1]; 2 hours): 12.8%
Swelling rate after administration (%) ([1]; 4 hours): 10.7%

CC(=O)O[C@H]1C(=O)[C@@]2(C)[C@H]([C@H](OC(=O)c3ccccc3)[C@]3(O)C[C@H](OC(=O)[C@H](O)[C@@H](NC(=O)c4ccccc4)c4ccccc4)C(C)=C1C3(C)C)[C@]1(OC(C)=O)CO[C@@H]1C[C@@H]2O [Paclitaxel, reference compound]
viable cells by MTT units vs DMSO control ([2]; ES2, 10 ng/ml): 94%
viable cells by MTT units vs DMSO control ([2]; ES2, 50 ng/ml): 91%
IC50 ([2]; ES2 cells, used singly): 1.25 ng/mL (≈ 1.46 nM)
IC50 ([2]; Homo sapiens, ES-2, ES2 cells, combined with Xanifolia-Y, read-out: IC50 value for Paclitaxel when both drugs were used): 0.625 ng/mL
IC50 ([2]; Homo sapiens, ES-2, ES2 cells, used singly, read-out: IC50): 1.5 ng/mL (≈ 1.76 nM)
Fibronectin secreted into medium, % of DMSO control ([3]; ES2 cells, 10 ng/ml): 105%
Fibronectin secreted into medium, % of DMSO control ([3]; ES2 cells, 50 ng/ml): 97%
inhibition of Fibronectin secretion ([3]; ES2 cells, 10 to 50 ng/ml): no inhibition

beta-Escin [reference compound]
% inhibition of Fibronectin secretion ([4]; 20 ug/ml): 66%
% inhibition of Fibronectin secretion ([5]; 20 ug/ml): 17%
growth of cells compared to the DMSO control (MTT) ([2]; ES2, 10 ug/ml (F13)): 90%
growth of cells compared to the DMSO control (MTT) ([2]; ES2, 20 ug/ml (F13)): 82%
% inhibition of Fibronectin secretion [6]: 47%
% inhibition of Fibronectin secretion ([7]; listed as ES): have inhibition effect
% inhibition of Fibronectin secretion ([7]; listed as β-ES): 44%
% inhibition of Fibronectin secretion ([3]; ES2 cells, 10 ug/ml): 7%
Fibronectin secreted / FN band intensity, % of DMSO control ([3]; ES2 cells, 10 ug/ml): 93%
% inhibition of Fibronectin secretion ([3]; ES2 cells, 10 ug/ml, listed as β-ES): 19%
% inhibition of Fibronectin secretion ([3]; ES2 cells, 20 ug/ml): 48%
Fibronectin secreted / FN band intensity, % of DMSO control ([3]; ES2 cells, 20 ug/ml): 52%

C/C=C(/C)C(=O)O[C@H]1[C@H](OC(=O)C(C)C)[C@@]2(CO)C(CC1(C)C)C1=CCC3[C@@]4(C)CC[C@H](O[C@@H]5OC(C(=O)O)[C@@H](O)C(O[C@@H]6O[C@@H](CO)C(O)C6O)C5O[C@@H]5OC(CO)[C@H](O)C(O)C5O)C(C)(C)C4CC[C@@]3(C)[C@]1(C)[C@@H](O)[C@H]2O (stereo partly drawn) [Xanifolia Y0, 3-O-[β-D-galactopyranosyl(1→2)]-α-L-arabinofuranosyl(1→3)-β-D-glucuronopyranosyl-21-O-angeloyl, 22-O-(2-methylpropanoyl)-3β, 15α, 16α, 21β, 22α, 28-hexahydroxyolean-12-ene]
inhibition at 10 µg/mL [4]: 22%
inhibition at 10 µg/mL ([5]; Homo sapiens, 10 ug/ml): 27%
inhibition at 10 µg/mL [6]: 32%
inhibition at 10 µg/mL [8]: 22%
inhibition at 10 µg/mL [7]: 40%
inhibition at 10 µg/mL ([3]; 10 ug/ml): 34%

CC1O[C@@H](OC2[C@H](OC3[C@H](O[C@H]4C(O[C@@H]5OC(CO)[C@H](O)[C@@H](O)C5O)[C@H](O[C@H]5CC[C@@]6(C)C(CC[C@]7(C)C6CC[C@]68O[C@H](O)[C@]9(C6CC(C)(C)[C@@H](O)[C@@H]9O)[C@H](O)C[C@]87C)C5(C)C)OC(C(=O)O)[C@H]4O)OC(CO)[C@H](O)[C@H]3O)OC(C)[C@H](O)[C@@H]2O)C(O)[C@@H](O)[C@H]1O (some centres unmarked) [AKOH-Mb5]
anticancer activity after alkaline hydrolysis [9]: lost anticancer activity

C/C=C(/C)C(=O)O[C@H]1[C@H](OC(=O)/C(C)=C\C)[C@@]2(CO)C(CC1(C)C)C1=CCC3[C@@]4(C)CC[C@H](O[C@@H]5OC(C(=O)O)[C@@H](O)C(O)C5O[C@@H]5OC(CO)[C@H](O)C(O)C5O)C(C)(C)C4CC[C@@]3(C)[C@]1(C)[C@@H](O)[C@H]2O (some centres unmarked) [Xanifolia Y5]
% inhibition of Fibronectin secretion [7]: have inhibition effect
inhibition at 10 µg/mL ([3]; 10 ug/ml): 68%

C/C=C(/C)C(=O)O[C@H]1[C@H](O)[C@@]2(COC(=O)C(C)CC)C(CC1(C)C)C1=CCC3[C@@]4(C)CC[C@H](O[C@@H]5OC(C(=O)O)[C@@H](O)C(O[C@@H]6O[C@@H](CO)C(O)C6O)C5O[C@@H]5OC(CO)[C@H](O)C(O)C5O)C(C)(C)C4CC[C@@]3(C)[C@]1(C)[C@@H](O)[C@H]2O (stereo partly drawn) [Xanifolia Y7, 3-O-[β-D-galactopyranosyl-(1→2)]-α-L-arabinofuranosyl-(1→3)-β-D-glucuronopyranosyl-21-O-angeloyl-28-O-2-methylbutanoyl-3β, 15α, 16α, 21β, 22α, 28-hexahydroxyolean-12-ene]
inhibition at 10 µg/mL ([4]; T98G): 24%
inhibition at 10 µg/mL [6]: 60%
inhibition at 10 µg/mL [8]: 18%
inhibition at 10 µg/mL [7]: 10%
inhibition at 10 µg/mL ([3]; 10 ug/ml): 34%
